Test results published in patent US6548553B2, “Styryl sulfone anticancer agents” (Temple University-of the Commonwealth System of Higher …, priority 1997, dated 2003).

Columns and labels:
Assay in all cases: GI50 growth inhibition, trypan blue cell count
H80 = assay type: cell-based; conditions: Homo sapiens; glioblastoma; 96 hours after addition
Protocol: (§1) The human carcinoma cell lines listed in Table 5 below were purchased from ATCC and grown in an appropriate growth medium containing 10% fetal bovine serum (FBS) and antibiotics. The cells were plated at a cell density of 1.0×10^5 cells per […] in 6-well dishes. The cells were treated with various concentrations of (E)-fluorostyryl-4-bromobenzylsulfone 24 hours after plating in a total volume of 1 ml of medium using dimethylsulfoxide (DMSO) as a solvent for the compound. Control cells were treated with DMSO alone. The total number of viable cells was determined 96 hours after the addition of the compound by counting the cells in each well using a hemacytometer after trypan blue staining (viable cells exclude the stain). The counts were done in duplicate and the average was graphed in FIG. 8 as a percentage of the non-treated control group.
(§2) Applying the same protocol as in Example 34, the GI50 for compound FRI-20 treatment of the cell lines in Table 6 was determined: […]

OvCar-3 = assay type: cell-based; conditions: Homo sapiens, ovarian, 96 hours after addition
Protocol: as §1, §2

DLD-1 = assay type: cell-based, human; conditions: Homo sapiens, DLD-1; cob-rectal; 96 hours after addition
Protocol: as §1

U87 = assay type: cell-based, human; conditions: Homo sapiens, U-87 MG; glioblastoma; 96 hours after addition
Protocol: as §1

MIA-PaCa-2 = assay type: cell-based, human; conditions: Homo sapiens, MIA PaCa-2; pancreatic; 96 hours after addition
Protocol: as §1

H157 = assay type: cell-based, human; conditions: Homo sapiens, NCI-H157; lung, non-small cell; 96 hours after addition
Protocol: as §1

## O=S(=O)(/C=C/c1ccc(F)cc1)Cc1ccc(Cl)cc1 [Example 11, E-4-fluorostyryl 4-chlorobenzyl Sulfone]
H80
  GI50: 1500 nM
OvCar-3
  GI50: 1500 nM
DLD-1
  GI50: 1000 nM
U87
  GI50: 2000 nM
MIA-PaCa-2
  GI50: 500 nM
H157
  GI50: 1500 nM
